Source: patent publication US20020128185A1, “Pharmaceutical compounds” (priority 1998, published 2002)
“Also recorded” adds a separate entry of the source.

Experiments:
[1] = system: SKVLB1 cells (vinblastine-resistant, P-glycoprotein-overexpressing sub-line of SKOV3); test: Inhibition of growth of SKVLB1 cells; format: cell-based; settings: Homo sapiens
Procedure: The Jurkat T cell leukemia line and A-10 rat aortic smooth muscle cells are obtained from the American Type Culture Collection and are cultured in BME containing 10% FBS and 50 μg/mL gentamycin sulfate. […] Both cell lines are maintained in BME containing 10% FBS and 50 μg/mL gentamycin sulfate.
Cell proliferation assays are performed as described by Skehan et al. For Jurkat cells, cultures are treated with the indicated drugs as described in Skehan and total cell numbers are determined by counting the cells in a hemacytometer. The percentage of cells in mitosis are determined by staining with 0.4% Giemsa in PBS followed by rapid washes with PBS. At least 1000 cells per treatment are scored for the presence of mitotic figures and the mitotic index is calculated as the ration of the cells with mitotic figures to the total number of cells counted.
SKVLB1 cells are resistant to natural product anticancer drugs because of their over expression of P-glycoprotein.

[2] = system: A-10 rat aortic smooth muscle cells; test: Immunofluorescence assays of the cytoskeleton in A-10 cells; format: cell-based; settings: for Microtubule repolymerization after removal of drug: 100 nM for 24 hr
Procedure: A-10 cells are grown to near-confluency on glass coverslips in BME/10% FBS. Compounds in PBS are added to the indicated final concentrations and cells are incubated for an additional 24 hours. For the staining of microtubules and intermediate filaments, the cells are fixed with cold methanol and incubated with PBS containing 10% calf serum to block nonspecific binding sites. Cells are then incubated at 37° C for 60 min. with either monoclonal anti-S-tubulin or with monoclonal anti-vimentin at dilutions recommended by the manufacturer. Bound primary antibodies are subsequently visualized by a 45-minute incubation with fluorescein-conjugated rabbit antimouse IgG. The coverslips are mounted on microscope slides and the fluorescence patterns are examined and photographed using a Zeiss Photomicroscope Ill equipped with epifluorescence optics for fluorescein. […] PBS containing 100 nM TRITC-phalloidin is then added and the mixture is allowed to incubate for 45 min. at 37° C. The cells are washed rapidly with PBS before the coverslips are mounted and immediately photographed as described above.
After 24 hours, microtubules and vimentin intermediate filaments are visualized by indirect immunofluorescence and microfilaments are stained using TRITC-phalloidin. The morphological effects of each drug is examined.
After 24 hours, microtubule organization is examined by immunofluorescence as described above.
The cells are then washed and incubated in drug-free medium for periods of 1 hour or 24 hours. […] Cells are visualized for microtubule state after treatment with a cryptophycin compound of this invention at either 1 hour or 24 hours after removal of the cryptophycin compounds.

COc1ccc(C[C@H]2NC(=O)/C=C/C[C@@H]([C@H](C)/C=C/c3ccccc3)OC(=O)[C@H](CC(C)C)NC(=O)CC(CC(C)C)NC2=O)cc1Cl (stereo partly shown) gave a melting point of 258 to 260 °C.

With CC[C@]1(O)C[C@@H]2CN(CCc3c([nH]c4ccccc34)[C@@](C(=O)OC)(c3cc4c(cc3OC)N(C)[C@H]3[C@@](O)(C(=O)OC)[C@H](OC(C)=O)[C@]5(CC)C=CCN6CC[C@]43[C@@H]65)C2)C1 [Vinblastine, vinblastine] the IC50 [1] was 4.2 µM, the “Microtubule repolymerization after removal of drug” value ([2]; then 1 hour in drug-free medium) was “significant levels of microtubules after 1 hour” and the “Microtubule repolymerization after removal of drug” value ([2]; then 24 hours in drug-free medium) was “complete morphological recovery by 24 hour”. For the same compound, the Effect on microtubules ([2]; 100 nM vinblastine, 24 hours, not pretreated) was “complete depolymerization of microtubules; also recorded: complete microtubule depolymerization”.

For C=C1[C@@H](C)[C@H]2[C@H](Cc3ccccc3)NC(=O)[C@]23OC(=O)/C=C/[C@H](O)CCC[C@@H](C)C/C=C/[C@H]3[C@@H]1O [Cytochalasin B, cytochalasin B], the “Effect on distribution of microtubules and intermediate filaments” value ([2]; 2 μM cytochalasin B, 24 hours) was “did not affect the distribution of either microtubules or intermediate filaments” and the Effect on microfilaments ([2]; 2 μM cytochalasin B, 24 hours, TRITC-phalloidin staining) was “complete depolymerization of microfilaments”.

In the case of CC(=O)O[C@H]1C(=O)[C@@]2(C)[C@H]([C@H](OC(=O)c3ccccc3)[C@]3(O)C[C@H](OC(=O)[C@H](O)[C@@H](NC(=O)c4ccccc4)c4ccccc4)C(C)=C1C3(C)C)[C@]1(OC(C)=O)CO[C@@H]1C[C@@H]2O [Taxol, taxol], the IC50 [1] is reported as 8 µM, the “Microtubule organization in taxol-treated cells” value ([2]; 10 μM taxol, compared with control cells) is reported as “extensively bundled” and the “Effect of taxol pretreatment on vinblastine-induced microtubule depolymerization” value ([2]; 3 hours 10 μM taxol before 100 nM vinblastine, 24 hours) is reported as “prevented microtubule depolymerization in response to vinblastine”.
